Like-named read-outs stand apart in the source and are kept apart here. Bridge positions count the residues as written; N and C are the ends. Ends that are not written are not given here.
Tests used:
[1] = system: Caco-2 cell monolayer; experiment: Cytotoxicity assay, resazurin method; assay type: cell-based, human; details: for СС50 Caco-2: Table S2, monolayer, 24 h in RPMI-1640, resazurin, twice in duplicate
Description: (§1) Cytotoxic activity of the peptides was investigated against human peripheral blood mononuclear cells (PBMCs) and the Caco-2 epithelial monolayer as an in vitro model of the intestinal barrier using a RPMI-1640 medium and resazurin-test.
(§2) In brief, Caco-2 cells in a monolayer or 2 × 10^6 PBMCs per well were incubated with serial dilutions of the peptides for 24 h in RPMI-1640. Resazurin (Sigma, St. Louis, MO, USA) was then added at a final concentration of 70 µM and the plates were incubated for 20 h. Untreated cells (F0) and cells treated by 0.1% Triton X-100 (Sigma-Aldrich) (Fcontrol) were used as negative and positive controls, respectively. Cell viability was assessed by resorufin fluorescence using a 535/595 nm filter and a PlateReader AF2200 as ((Fsample − F0)/(Fcontrol − F0)) × 100%. […] The experiment was carried out twice in duplicate.

[2] = system: PBMCs; experiment: Cytotoxicity assay, resazurin method; assay type: cell-based, human; details: Table S2; 24 h in RPMI-1640, resazurin, twice in duplicate
Description: as §1, §2

[3] = not given; remark: listed apart in the source
[4] = not given; remark: listed apart in the source
[5] = not given; remark: listed apart in the source
[6] = not given; remark: listed apart in the source
[7] = not given; remark: listed apart in the source
[8] = not given; remark: listed apart in the source
[9] = not given; remark: listed apart in the source
[10] = not given; remark: listed apart in the source
[11] = not given; remark: listed apart in the source
[12] = not given; remark: listed apart in the source
[13] = not given; remark: listed apart in the source
[14] = system: C. albicans clinical isolate 8.2; details: Table 2; resistant clinical isolate 8.2; Sabouraud broth, 30 °C, 24 h, 100% inhibition
Description: (§3) Using the two-fold serial dilution method, antifungal activities of the obtained analogues were tested against different C. albicans strains: susceptible collection strain ATCC 18804; resistant to azoles and anidulafungin collection strain ATCC 10231 and clinical isolates 9.1 and 8.2 [7].
(§4) The antifungal assay was performed by the microdilution method using 96-well microplates and Sabouraud broth as described earlier. […] After that, the plates were incubated at 30 °C for 24 h. A control without antifungals was also tested. Fungal growth was evaluated by measuring absorbance at 630 nm. […] All the experiments were performed twice in triplicate. Microscopic analysis of fungal growth was performed using inverted microscopy (Olympus, Tokyo, Japan). A 0.1% BSA solution was used for the blocking of each microplates well to prevent the adsorption of antifungal agents.

[15] = system: C. albicans ATCC 18804; details: Sabouraud broth
Description: as §3, §4

[16] = system: C. albicans clinical isolate 9.1; details: Table 2; resistant clinical isolate 9.1; Sabouraud broth, 30 °C, 24 h, 100% inhibition
Description: as §3, §4

[17] = system: C. albicans ATCC 10231; details: Table 2; strain resistant to azoles and anidulafungin; Sabouraud broth, 30 °C, 24 h, 100% inhibition
Description: as §3, §4

[18] = system: human red blood cells (hRBCs); details: Table S2; 4% v/v hRBCs in PBS, 2 h, 37 °C
Description: All procedures were approved by the Ethics Committee of the Institute of Experimental Medicine (protocol 1/20 of 2/27/2020) and comply with the ethical principles of the Declaration of Helsinki. […] Samples were centrifuged to sediment intact red blood cells. Supernatants containing released hemoglobin were transferred to 96-well microplates, and absorbance was measured at 405 nm. Untreated hRBCs in PBS (A0) and hRBC treated with 0.1% Triton X-100 (Sigma-Aldrich) (Acontrol) were used as negative and positive controls, respectively. The percentage of hemolysis was calculated as [(Asample − A0)/(Acontrol − A0)] × 100%. The experiment was carried out twice in duplicate.

[19] = Caco-2 monolayer, RPMI-1640, resazurin-test

| Molecule | СС50 Caco-2 [1] [µM] | Random, DPC micelles [%] | β-Sheet, aqueous solution [3] [%] | Random, SDS micelles [4] [%] | β-Turn, SDS micelles [5] [%] | α-Helix, DPC micelles [6] [%] | β-Sheet, DPC micelles [7] [%] | β-Turn, aqueous solution [8] [%] | Random, aqueous solution [9] [%] | β-Sheet, SDS micelles [10] [%] | α-Helix, aqueous solution [11] [%] | α-Helix, SDS micelles [12] [%] | β-Turn, DPC micelles [13] [%] | other results |
| --- | --- | --- | --- | --- | --- | --- | --- | --- | --- | --- | --- | --- | --- | --- |
| CC[C@H](C)[C@H](NC(=O)CN)C(=O)NCC(=O)N[C@@H](C)C(=O)N[C@H](C(=O)N[C@@H](CC(C)C)C(=O)N[C@@H](CCCCN)C(=O)N[C@H](C(=O)N[C@@H](CC(C)C)C(=O)N[C@H](C(=O)N[C@H](C(=O)NCC(=O)N[C@@H](CC(C)C)C(=O)N1CCC[C@H]1C(=O)N[C@@H](C)C(=O)N[C@@H](CC(C)C)C(=O)N[C@H](C(=O)N[C@@H](CO)C(=O)N[C@@H](Cc1c[nH]c2ccccc12)C(=O)N[C@H](C(=O)N[C@@H](CCCCN)C(=O)N[C@@H](CCCNC(=N)N)C(=O)N[C@@H](CCCCN)C(=O)N[C@@H](CCCNC(=N)N)C(=O)N[C@@H](CCC(N)=O)C(=O)N[C@@H](CCC(N)=O)C(N)=O)[C@@H](C)CC)[C@@H](C)CC)[C@@H](C)O)[C@@H](C)O)C(C)C)C(C)C [melittin] | 2.35 | – | – | – | – | – | – | – | – | – | – | – | – | concentration at which cell viability was 0% (100% cell death) [1, 19]: ~12.5 µM; concentration at which cell viability was 50% [1, 19]: ~2.5 µM; СС50 PBMCs [2]: 6.10 µM |
| H-RECKTESNTFPGICITKPPCRKACISEKFTDGHCSKILRRCLCRRPC-OH (disulfide 3-47, 14-34, 20-41, 24-43) | – | 31.1 | 29.8 | 32.5 | 22.7 | 15.8 | 30.4 | 23.7 | 38.9 | 28.5 | 7.6 | 16.2 | 22.6 | – |
| RECKTESNTFPGICITKPPCRKACISEKFTDGHCRGFRRRCLCTKPC (disulfide 3-47, 14-34, 20-41, 24-43) [NaD1-L5] | > 150 | 35.5 | 22.9 | 35.9 | 23.4 | 18.2 | 24.1 | 24.3 | 39.3 | 23 | 13.5 | 17.8 | 22.3 | MIC [14]: 25 µM; IC50 ([15]; 50 mM NaCl, 50% inhibition): 25 to 50 µM; MIC ([15]; 50 mM NaCl, 100% inhibition): 50 µM; IC50 ([15]; 150 mM NaCl, 50% inhibition): > 50 µM; MIC ([15]; 150 mM NaCl, 100% inhibition): >50 µM; MIC ([15]; Table 2, 30 °C, 24 h, 100% inhibition of fungal growth, absorbance 630 nm, two-fold dilutions, twice in triplicate): 6.25 µM; IC50 ([15]; Table 3, No Salts, 50% inhibition of fungal growth): 3.13 to 6.25 µM; MIC ([15]; Table 3, No Salts, 100% inhibition of fungal growth): 6.25 µM; IC50 ([15]; […] CaCl2, 50% inhibition): 25 to 50 µM; MIC ([15]; […] CaCl2, 100% inhibition): 50 µM; IC50 ([15]; […] MgCl2, 50% inhibition): 12.5 to 25 µM; MIC ([15]; […] MgCl2, 100% inhibition): 50 µM; MIC [16]: 6.25 µM; MIC [17]: 6.25 µM; Hemolysis at 100 µM [18]: no hemolysis; cytotoxic effects on Caco-2 cells ([1]; in words, at a concentration of 150 µM): practically no cytotoxic effects |
| H-RECKTESNTFPGICITKPPCRKACISEKFTDGHCSRIRRRCLCTKPC-OH (disulfide 3-47, 14-34, 20-41, 24-43) | – | 34.6 | 36.8 | 31.9 | 21.3 | 7.6 | 35.8 | 22 | 35.6 | 40.4 | 5.6 | 6.5 | 22 | – |
